In patent US10150760B2, “Compounds for use in preparing heterocyclic triazole agonists of the APJ receptor” (AMGEN INC., priority 2016, dated 2018) one finds EC50 data, which are given here for eleven compounds.

Chain of human APJ receptor (P35414 whole entry): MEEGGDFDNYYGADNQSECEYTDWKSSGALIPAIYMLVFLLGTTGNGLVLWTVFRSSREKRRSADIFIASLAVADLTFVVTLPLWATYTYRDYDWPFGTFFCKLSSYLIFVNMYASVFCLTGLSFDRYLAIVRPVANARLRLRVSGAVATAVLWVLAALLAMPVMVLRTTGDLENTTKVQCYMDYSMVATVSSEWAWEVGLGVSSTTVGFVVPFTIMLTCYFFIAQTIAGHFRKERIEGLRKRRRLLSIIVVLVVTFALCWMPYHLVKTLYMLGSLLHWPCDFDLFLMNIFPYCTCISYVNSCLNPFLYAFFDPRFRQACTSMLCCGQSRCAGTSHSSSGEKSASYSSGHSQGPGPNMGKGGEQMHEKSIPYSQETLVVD

The target of this assay is human APJ receptor (Homo sapiens (Human), UniProt P35414). As to the kind of experiment: [35S]GTPγS binding assay on membranes from CHO cells stably expressing human APJ receptor. The assay is classed as biochemical. As to conditions: read-out: Activity hAPJ SPA EC50 IP. A digest of the protocol:
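Membranes from CHO cells stably expressing human APJ incubated with ligand, 0.2 nM [35S]GTPγS and WGA SPA beads in HEPES pH 7.5 with 5 mM MgCl2, 200 mM NaCl, 3 μM GDP, 90 min at RT. Nonspecific binding defined with 100 μM GTPγS; EC50 by non-linear regression.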
The EC50 is the concentration needed to bring the measured effect to its halfway point. Consider `CO[C@H](c1cnc(C)cn1)[C@H](C)S(=O)(=O)Nc1nnc([C@H]2CCCOC2)n1C1(C)CC1` (single isomer, unassigned) [Example 131.0, (1R,2S)-1-methoxy-N-(4-(1-methylcyclopropyl)-5-((R)-tetrahydro-2H-pyran-3-yl)-4H-1,2,4-triazol-3-yl)-1-(5-methylpyrazin-2-yl)propane-2-sulfonamide or (1R,2S)-1-methoxy-N-(4-(1-methylcyclopropyl)-5-((S)-tetrahydro-2H-pyran-3-yl)-4H-1,2,4-triazol-3-yl)-1-(5-methylpyrazin-2-yl)propane-2-sulfonamide], for which the EC50 was 0.55 µM.
With `COc1cccc(OC)c1-n1c(NS(=O)(=O)[C@@H](C)[C@H](C)c2cnc(C)cn2)nnc1[C@H]1CCOC1` (single isomer, unassigned) [Example 132.0, (2S,3R)-N-(4-(2,6-dimethoxyphenyl)-5-((R)-tetrahydrofuran-3-yl)-4H-1,2,4-triazol-3-yl)-3-(5-methylpyrazin-2-yl)butane-2-sulfonamide or (2S,3R)-N-(4-(2,6-dimethoxyphenyl)-5-((S)-tetrahydrofuran-3-yl)-4H-1,2,4-triazol-3-yl)-3-(5-methylpyrazin-2-yl)butane-2-sulfonamide], the EC50 turned out to be 0.14 µM.
The same measure for `COc1cccc(OC)c1-n1c(NS(=O)(=O)[C@@H](C)[C@H](C)c2cnc(C)cn2)nnc1[C@H]1CCOC1` (single isomer, unassigned) [Example 133.0, (2S,3R)-N-(4-(2,6-dimethoxyphenyl)-5-((R)-tetrahydrofuran-3-yl)-4H-1,2,4-triazol-3-yl)-3-(5-methylpyrazin-2-yl)butane-2-sulfonamide or (2S,3R)-N-(4-(2,6-dimethoxyphenyl)-5-((S)-tetrahydrofuran-3-yl)-4H-1,2,4-triazol-3-yl)-3-(5-methylpyrazin-2-yl)butane-2-sulfonamide]: 0.32 µM; for `COc1cccc(OC)c1-n1c(NS(=O)(=O)[C@@H](C)[C@H](C)c2cnc(C)cn2)nnc1[C@H]1CCCOC1` (single isomer, unassigned) [Example 134.0, (2S,3R)-N-(4-(2,6-dimethoxyphenyl)-5-((R)-tetrahydro-2H-pyran-3-yl)-4H-1,2,4-triazol-3-yl)-3-(5-methylpyrazin-2-yl)butane-2-sulfonamide or (2S,3R)-N-(4-(2,6-dimethoxyphenyl)-5-((S)-tetrahydro-2H-pyran-3-yl)-4H-1,2,4-triazol-3-yl)-3-(5-methylpyrazin-2-yl)butane-2-sulfonamide]: 0.4 µM.
The same measure for `COc1cccc(OC)c1-n1c(NS(=O)(=O)[C@@H](C)[C@H](C)c2cnc(C)cn2)nnc1[C@H]1CCCOC1` (single isomer, unassigned) [Example 135.0, (2S,3R)-N-(4-(2,6-dimethoxyphenyl)-5-((R)-tetrahydro-2H-pyran-3-yl)-4H-1,2,4-triazol-3-yl)-3-(5-methylpyrazin-2-yl)butane-2-sulfonamide or (2S,3R)-N-(4-(2,6-dimethoxyphenyl)-5-((S)-tetrahydro-2H-pyran-3-yl)-4H-1,2,4-triazol-3-yl)-3-(5-methylpyrazin-2-yl)butane-2-sulfonamide]: 0.035 µM.
Consider `COc1cccc(OC)c1-n1c(NS(=O)(=O)[C@@H](C)[C@@H](OC(C)C)c2ncc(C)cn2)nnc1[C@H]1CCCOC1` (single isomer, unassigned) [Example 136.0, (1S,2S)-N-(4-(2,6-dimethoxyphenyl)-5-((R)-tetrahydro-2H-pyran-3-yl)-4H-1,2,4-triazol-3-yl)-1-isopropoxy-1-(5-methylpyrimidin-2-yl)propane-2-sulfonamide or (1S,2S)-N-(4-(2,6-dimethoxyphenyl)-5-((S)-tetrahydro-2H-pyran-3-yl)-4H-1,2,4-triazol-3-yl)-1-isopropoxy-1-(5-methylpyrimidin-2-yl)propane-2-sulfonamide], for which the EC50 was found to be 0.13 µM.
On to `COc1cccc(OC)c1-n1c(NS(=O)(=O)[C@@H](C)[C@@H](OC(C)C)c2ncc(C)cn2)nnc1[C@H]1CCCOC1` (single isomer, unassigned) [Example 137.0, (1S,2S)-N-(4-(2,6-dimethoxyphenyl)-5-((R)-tetrahydro-2H-pyran-3-yl)-4H-1,2,4-triazol-3-yl)-1-isopropoxy-1-(5-methylpyrimidin-2-yl)propane-2-sulfonamide or (1S,2S)-N-(4-(2,6-dimethoxyphenyl)-5-((S)-tetrahydro-2H-pyran-3-yl)-4H-1,2,4-triazol-3-yl)-1-isopropoxy-1-(5-methylpyrimidin-2-yl)propane-2-sulfonamide], for which the EC50 stood at 0.0048 µM.
Next, `COc1ncnc(OC)c1-n1c(NS(=O)(=O)[C@@H](C)[C@H](OC)c2ncc(Cl)cn2)nnc1[C@H]1CCC(C)(C)O1` (single isomer, unassigned) [Example 138.0, (1R,2S)-1-(5-chloropyrimidin-2-yl)-N-(4-(4,6-dimethoxypyrimidin-5-yl)-5-((S)-5,5-dimethyltetrahydrofuran-2-yl)-4H-1,2,4-triazol-3-yl)-1-methoxypropane-2-sulfonamide or (1R,2S)-1-(5-chloropyrimidin-2-yl)-N-(4-(4,6-dimethoxypyrimidin-5-yl)-5-((R)-5,5-dimethyltetrahydrofuran-2-yl)-4H-1,2,4-triazol-3-yl)-1-methoxypropane-2-sulfonamide]: 0.12 µM; `COc1cccc(OC)c1-n1c(NS(=O)(=O)[C@@H](C)[C@H](O)c2ncc(C)cn2)nnc1[C@H]1CCOC1` (single isomer, unassigned) [Example 141.0, (1R,2S)-N-(4-(2,6-dimethoxyphenyl)-5-((S)-tetrahydrofuran-3-yl)-4H-1,2,4-triazol-3-yl)-1-hydroxy-1-(5-methylpyrimidin-2-yl)propane-2-sulfonamide or (1R,2S)-N-(4-(2,6-dimethoxyphenyl)-5-((R)-tetrahydrofuran-3-yl)-4H-1,2,4-triazol-3-yl)-1-hydroxy-1-(5-methylpyrimidin-2-yl)propane-2-sulfonamide]: 0.2 µM; `COc1cccc(OC)c1-n1c(NS(=O)(=O)CCc2ccc(Cl)cc2)nnc1[C@@H]1CCCO1` (single isomer, unassigned) [Example 144.0, (S)-2-(4-Chlorophenyl)-N-(4-(2,6-dimethoxyphenyl)-5-(tetrahydrofuran-2-yl)-4H-1,2,4-triazol-3-yl)ethanesulfonamide or (R)-2-(4-chlorophenyl)-N-(4-(2,6-dimethoxyphenyl)-5-(tetrahydrofuran-2-yl)-4H-1,2,4-triazol-3-yl)ethanesulfonamide]: 0.08 µM.
Next, `COc1cccc(OC)c1-n1c(NS(=O)(=O)CCc2ccc(Cl)cc2)nnc1[C@@H]1CCCO1` (single isomer, unassigned) [Example 145.0, (S)-2-(4-Chlorophenyl)-N-(4-(2,6-dimethoxyphenyl)-5-(tetrahydrofuran-2-yl)-4H-1,2,4-triazol-3-yl)ethanesulfonamide or (R)-2-(4-chlorophenyl)-N-(4-(2,6-dimethoxyphenyl)-5-(tetrahydrofuran-2-yl)-4H-1,2,4-triazol-3-yl)ethanesulfonamide]: 0.83 µM.
